Starred links: 1 amine or outer side, 2 acyl side, 3 side chain; linkers in the order of their positions; H or OH if unused. Positions of bridges follow the written chain, without caps; N, C: chain ends. Non-standard residues stand in square brackets, D forms with d. Residues, ends and D or L forms follow the SMILES beside them. 1Nal = N[C@@H](Cc1cccc2ccccc12)C(=O)O; TBMB = c1c(C[*:1])cc(C[*:3])cc1C[*:2]; Tle = CC(C)(C)[C@H](N)C(=O)O; βAla = NCCC(=O)O; Sar = CNCC(=O)O
Assays:
MT1-MMP = assay: Species cross-reactivity with MT1-MMP; assay type: binding; details: murine, dog, cynomolgus and human MT1-MMP
MT1-MMP hemopexin domain = molecular target: T1, MT1-MMP hemopexin domain (Homo sapiens, UniProt P50281); assay: Fluorescence polarisation competition binding to MT1-MMP hemopexin domain; details: read-out: Binding Affinity Ki(h)
T1 construct: residues Cys319-Gly511 from the human gene; His6 (N); made in house; host or cells: HEK293 (transient, pEXPR-IBA42 vector)
Text: The MT1-MMP hemopexin-like repeats (also known as the MT1-MMP hemopexin domain), residues Cys319-Gly511 from the human gene, were transiently expressed in HEK293 cells as secreted N-terminally His6-tagged soluble protein, using the pEXPR-IBA42 (IBA) expression vector. Following expression, the protein was purified by Nickel-NTA affinity chromatography followed by gel filtration, and purity was checked by SDS-PAGE. Batch to batch variability was also monitored by fluorescence thermal shift experiments in the presence/absence of a hemopexin domain binding bicycle.
Binding affinity was measured using competition assays using Fluorescence Polarisation (anisotropy). […]
Here, a pre-formed complex of PEX with the fluorescent PEX-binding tracer is titrated with free, non-fluoresceinated bicyclic peptide. […] Dissociation of the complex can be measured quantitatively, and the Kd of the competitor (titrant) to the target protein determined. The advantage of the competition method is that the affinities of non-fluoresceinated bicyclic peptides can be determined accurately and rapidly.
Subsequently, the non-fluorescent competitor bicyclic peptide (usually just the bicycle core sequence) is titrated, such that it displaces the fluorescent tracer from the target protein. The displacement of the tracer is measured and associated with a drop in fluorescence polarisation. […]

[1] = Plasma stability in human serum; assay type: in vitro ADME; details: 4 μm concentration
Text: (§1) The stability appears to be slightly greater than that of the corresponding conjugates in which the peptide is linked to the scaffold by three thioether linkages.

[2] = Plasma stability in mouse serum; assay type: in vitro ADME; details: 4 μM concentration
Text: as §1

[3] = Tolerability in HT1080 tumor-bearing mice; details: mouse, in vivo; biw dosing, up to 14 days, BALB/c nude mice; read-out: tolerated dose
Experimental: BALB/c nude mice were inoculated subcutaneously at the right flank with HT1080 tumor cells […] in 0.2 ml of PBS for tumor development. 39 animals were randomized when the average tumor volume reached […].
The BDC compounds were formulated at 0.03 mg/ml in a vehicle buffer containing 25 mM histidine and 10% Sucrose. The formulations were administered twice weekly (biw) at 0.3, 1, 3 and 10 mg/kg. Tumor volume and body weight were measured up to 14 days from the first dosing.

## 17-69-07-N268: stabilised derivative of 17-69-07; Dap homologues have SEQ ID 17 (ACANEAACEDFYDGC; non-natural residues D-Ala, 1Nal, tBuGly, Dap; bicycle; VARIANT 2 /replace="Dap" or "N-AlkDap" or "N-HAlkDap"; MOD_RES 3 D-amino acid; MOD_RES 6 Fmoc-L-1-Naphthylalanine; MOD_RES 7 D-amino acid; VARIANT 8 /replace="Dap" or "N-AlkDap" or "N-HAlkDap"; MOD_RES 14 Fmoc-alpha-tert-butylglycine; VARIANT 15 /replace="Dap" or "N-AlkDap" or "N-HAlkDap"; MISC_FEATURE - /note="Variant residues given in the sequence have nopreference with respect to those in the a)
MT1-MMP
  cross-reactivity with MT1-MMP of other species: fully cross reactive

## C[C@H](NC(=O)CN(C)C(=O)CN(C)C(=O)CN(C)C(=O)CN(C)C(=O)CN(C)C(=O)CN(C)C(=O)CN(C)C(=O)CN(C)C(=O)CN(C)C(=O)CN(C)C(=O)CCN)C(=O)N[C@H]1CSCc2cc3cc(c2)CSC[C@H](NC(=O)[C@@H](C)NC(=O)[C@H](Cc2cccc4ccccc24)NC(=O)[C@H](CCC(=O)O)NC(=O)[C@H](CC(N)=O)NC(=O)[C@@H](C)NC1=O)C(=O)N[C@@H](CCC(=O)O)C(=O)N[C@@H](CC(=O)O)C(=O)N[C@@H](Cc1ccccc1)C(=O)N[C@@H](Cc1ccc(O)cc1)C(=O)N[C@@H](CC(=O)O)C(=O)N[C@@H](C(C)(C)C)C(=O)N[C@H](C(N)=O)CSC3 [17-69-07-N241, H-(β-Ala)-Sar10-Ala-Cys-(D-Ala)-Asn-Glu-(1Nal)-(D-Ala)-Cys-Glu-Asp-Phe-Tyr-Asp-(tBuGly)-Cys-NH2] (H-[βAla][Sar][Sar][Sar][Sar][Sar][Sar][Sar][Sar][Sar][Sar]AC[dA]NE[1Nal][dA]CEDFYD[Tle]C-NH2; linker 13-19-26 via TBMB)
MT1-MMP
  cross-reactivity with MT1-MMP of other species: fully cross reactive

## CC(=O)N[C@@H](C)C(=O)N[C@H]1CN(C)Cc2cc3cc(c2)CN(C)C[C@@H](C(N)=O)NC(=O)[C@H](C(C)(C)C)NC(=O)[C@H](CC(=O)O)NC(=O)[C@H](Cc2ccc(O)cc2)NC(=O)[C@H](Cc2ccccc2)NC(=O)[C@H](CC(=O)O)NC(=O)[C@H](CCC(=O)O)NC(=O)[C@H](CSC3)NC(=O)[C@@H](C)NC(=O)[C@H](Cc2cccc3ccccc23)NC(=O)[C@H](CCC(=O)O)NC(=O)[C@H](CC(N)=O)NC(=O)[C@@H](C)NC1=O [17-69-07-N479, Ac-A(Dap(Me))(D-Ala)NE(1Nal)(D-Ala)CEDFYD(tBuGly)(Dap(Me))]
MT1-MMP hemopexin domain
  Ki: 15.6 nM

## CC[C@H](C)[C@@H]([C@@H](CC(=O)N1CCC[C@H]1[C@H](OC)[C@@H](C)C(=O)N[C@H](C)[C@@H](O)c1ccccc1)OC)N(C)C(=O)[C@@H](NC(=O)[C@H](C(C)C)N(C)C(=O)OCc1ccc(NC(=O)[C@H](CCCNC(N)=O)NC(=O)[C@@H](NC(=O)Cn2cc(CCC(=O)NCCC(=O)N(C)CC(=O)N(C)CC(=O)N(C)CC(=O)N(C)CC(=O)N(C)CC(=O)N(C)CC(=O)N(C)CC(=O)N(C)CC(=O)N(C)CC(=O)N(C)CC(=O)N[C@@H](C)C(=O)N[C@H]3CNCc4cc5cc(c4)CSC[C@H](NC(=O)[C@@H](C)NC(=O)[C@H](Cc4cccc6ccccc46)NC(=O)[C@H](CCC(=O)O)NC(=O)[C@H](CC(N)=O)NC(=O)[C@@H](C)NC3=O)C(=O)N[C@@H](CCC(=O)O)C(=O)N[C@@H](CC(=O)O)C(=O)N[C@@H](Cc3ccccc3)C(=O)N[C@@H](Cc3ccc(O)cc3)C(=O)N[C@@H](CC(=O)O)C(=O)N[C@@H](C(C)(C)C)C(=O)N[C@H](C(N)=O)CNC5)nn2)C(C)C)cc1)C(C)C [BT17BDC-53]
[1]
  T1/2 in human serum: greater than 50 hours
[2]
  T1/2 in mouse serum: greater than 50 hours

## CC[C@H](C)[C@@H]([C@@H](CC(=O)N1CCC[C@H]1[C@H](OC)[C@@H](C)C(=O)N[C@H](C)[C@@H](O)c1ccccc1)OC)N(C)C(=O)[C@@H](NC(=O)[C@H](C(C)C)N(C)C(=O)OCc1ccc(NC(=O)[C@H](CCCNC(N)=O)NC(=O)[C@@H](NC(=O)Cn2cc(CCC(=O)N[C@@H](C)C(=O)N[C@H]3CN(C)Cc4cc5cc(c4)CN(C)C[C@@H](C(N)=O)NC(=O)[C@H](C(C)(C)C)NC(=O)[C@H](CC(=O)O)NC(=O)[C@H](Cc4ccc(O)cc4)NC(=O)[C@H](Cc4ccccc4)NC(=O)[C@H](CC(=O)O)NC(=O)[C@H](CCC(=O)O)NC(=O)[C@H](CSC5)NC(=O)[C@@H](C)NC(=O)[C@H](Cc4cccc5ccccc45)NC(=O)[C@H](CCC(=O)O)NC(=O)[C@H](CC(N)=O)NC(=O)[C@@H](C)NC3=O)nn2)C(C)C)cc1)C(C)C [BT17BDC-62]
[3]
  MTD: ~5 mg/kg

Reference: patent US20230340020A1, “PEPTIDE LIGANDS FOR BINDING TO MT1-MMP” (priority 2016, published 2023)
